# Laboratory results from US11351154B2, “Molecular genetic approach to treatment and diagnosis of alcohol and drug dependence” (University of Virginia Patent Foundation, priority 2011, dated 2022).
# What was measured:
# [1] = test system: subjects of the ondansetron clinical trial (251 subjects); assay: CART decision-tree subgroup analysis of ondansetron treatment effect on percentage heavy drinking; assay type: in vivo, human; details: for E(Y|T=1), Y=phd base90-mean(phdweek): T=1(ondansetron)
# Description: A decision tree is a structure that can be used to divide up a large collection of records into successively smaller sets of records by applying a sequence of simple decision rules. One advantage of decision tree is that the results can be easily interpreted. CART is a popular decision tree algorithm first published in Breiman et al 1984. CART starts by dividing data into 2 sub-groups (child nodes) that are homogeneous with respect to a particular target variable, in our case the target variable is the binary class label Z. By doing exhaustive search over all possible cutoffs for all possible candidate covariates, sub-groups are formed by identifying optimal split point for the optimal candidate covariate. Repeat the process recursively at each child node until one of the stopping criteria is met. In the end, CART prunes tree to smaller optimal size using cross-validation. After the final tree is determined, the class label (treatment) for “new subjects” is given by running them down the tree and identifying which terminal node they belong. The class label of the terminal node is formed by majority vote of cases in this node, that is if the proportion of class 1 in this node p>0.5, then the class label is 1, otherwise is 0. Let t denote the node, which is a region of the covariates space. A Split denoted by s on a numeric variable Xj take the form Xj<xji, where xji is a cut-off selected by trying all values of Xj in the data set as candidate split points. s splits the node t into left and right daughter nodes […]. The impurity function is used as a measure of node homogeneity. To calculate the impact of a split, compute increase in purity (or reduction in impurity) and choose a split that gives maximal value over all possible splits as the best splitter for node t. Gini criterion is the usual splitting criteria chosen by CART for categorical target. […] The full tree would not do the best job when applied to new dataset. The CART identifies candidate sub-trees through a process of repeated pruning. CART relies on a concept called adjusted error rate, AERα(T)=error rate(T)+α node count(T). This is a measure that increases each tree(T)'s misclassification rate on the training set by imposing a complexity penalty based on the number of final nodes in the tree. One can form a sequence of sub-trees of the full tree by varying the penalty value (cost complexity parameter), α and determining the tree that minimizes the adjusted error rate. After deleting the subjects with missing data, 251 subjects were included in the data analysis. Y=phd […]=(phd base90,Onage,[…], . . . , […]). There are total 21 genotypes. T=1(ondansetron) and T=0(placebo). The goal is to find a subgroup defined by X where the treatment effect is significant. After transforming this problem to a classification problem. CART was used to find the best subgroup with decision tree form.
# [2] = test system: individuals in alcohol trials; details: naltrexone dose of 50 mg/day; cited from earlier work
# [3] = test system: individuals who take topiramate; details: cited from earlier work
structure (smiles),measurement,setting,value
"Cc1nccn1CC1CCc2c(c3ccccc3n2C)C1=O (centres unmarked) [OND, 9-methyl-3-[(2-methyl-1H-imidazol-1-yl)methyl]-1,2,3,9-tetrahydrocarbazol-4-one]","E(Y|T=1), Y=phd base90-mean(phdweek)","[1]; overall sample, 251 subjects",32.1%
same,overall sample mean difference E(Y|T=1)−E(Y|T=0),"[1]; overall sample, ondansetron minus placebo",0.2%
same,"E(Y|T=1), Y=phd base90-mean(phdweek)","[1]; subgroup gen1=I (rs150226=AA or AG), 42 subjects",50.9%
same,sample mean difference E(Y|T=1)−E(Y|T=0),"[1]; subgroup gen1=I (rs150226=AA or AG), ondansetron minus placebo",28.7%
same,"E(Y|T=1), Y=phd base90-mean(phdweek)","[1]; subgroup gen2: rs1150226=GG, rs1176719=AA or AG, phd base90≥0.8663, 49 subjects",37.6%
same,sample mean difference E(Y|T=1)−E(Y|T=0),"[1]; subgroup gen2: rs1150226=GG, rs1176719=AA or AG, phd base90≥0.8663, ondansetron minus placebo",15.0%
same,"E(Y|T=1), Y=phd base90-mean(phdweek)","[1]; subgroup gen (gen1 + gen2), 91 subjects",43.0%
same,sample mean difference E(Y|T=1)−E(Y|T=0),"[1]; subgroup gen (gen1 + gen2), ondansetron minus placebo",20.6%
"Cl.O=C1CC[C@@]2(O)[C@H]3Cc4ccc(O)c5c4[C@@]2(CCN3CC2CC2)[C@H]1O5 [naltrexone, 17-(Cyclopropylmethyl)-4,5a-epoxy-3,14-dihydroxymorphinan-6-one hydrochloride]",individuals unable to tolerate the dose,[2],about 15%
"CC1(C)O[C@@H]2[C@@H](CO[C@@]3(COS(N)(=O)=O)OC(C)(C)O[C@@H]23)O1 [topiramate, 2,3:4,5-Bis-O-(1-methylethylidene)-beta-D-fructopyranose sulfamate]","cognitive impairment reported, share of individuals",[3]; general population,2.4%
same,occurrence rate of cognitive impairment,[3]; substance abuse field,about 18.7%
